Read-outs that look alike come from different tables or passages of the source.
What was measured:
[1] = molecular target: T1, σ1 receptor (Cavia porcellus, UniProt Q60492); test: σ1 receptor binding assay, radioligand [3H]-(+)-pentazocine, guinea pig brain membrane preparation; details: for inhibition at 1 µM / inhibition of the radioligand binding, σ1: test compound concentration of 1 µM
T1 construct: thawed membrane preparation of guinea pig brain; tissue Harlan-Winkelmann, Borchen, Germany (animal organs); host or cells: guinea pig brain membrane homogenate
T1 sequence (Q60492 whole entry): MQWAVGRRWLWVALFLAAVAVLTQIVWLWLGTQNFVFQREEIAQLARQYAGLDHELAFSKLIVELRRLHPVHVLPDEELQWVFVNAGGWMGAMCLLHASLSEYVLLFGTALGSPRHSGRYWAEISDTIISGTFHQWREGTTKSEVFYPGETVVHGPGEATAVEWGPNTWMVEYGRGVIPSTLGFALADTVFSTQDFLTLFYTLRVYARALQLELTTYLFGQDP

[2] = molecular target: T2, σ2 receptor (Rattus norvegicus, UniProt Q5U3Y7); test: σ2 receptor binding assay, radioligand [3H]di-o-tolylguanidine, rat liver membrane preparation; details: for inhibition at 1 µM / inhibition of the radioligand binding, σ2: test compound concentration of 1 µM; for inhibition of the radioligand binding, σ2: 1 µM; for Ki: read-out: Ki (nM) σ2
T2 construct: The thawed rat liver membrane preparation; tissue Harlan-Winkelmann, Borchen, Germany (animal organs); host or cells: rat liver membrane homogenate
T2 sequence (Q5U3Y7 1-176): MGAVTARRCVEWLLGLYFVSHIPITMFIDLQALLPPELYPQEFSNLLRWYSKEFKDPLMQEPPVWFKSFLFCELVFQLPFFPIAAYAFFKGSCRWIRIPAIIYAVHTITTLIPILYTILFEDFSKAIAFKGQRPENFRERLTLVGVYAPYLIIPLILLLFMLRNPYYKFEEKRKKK

[3] = [3H]-(+)-pentazocine, guinea pig brain, mean of three experiments (± SEM), values without SEM mean of two, read-out: Ki (nM) σ1
[4] = approximate statement in text, read-out: σ1 affinity, Ki (in the range of)

Work on `OC1CC23CCCCC2(C1)CC(NCc1ccccc1)C3` (mixture of isomers) [11-syn-13, [(8-syn-11-syn and 8-syn-11-anti)-11-(Benzylamino)[4.3.3]propellan-8-ol] yielded a Ki [1, 3] of 619 nM and an inhibition at 1 µM [2] of 27%.

With `COc1ccc(C)cc1NC(=O)N(Cc1ccccc1)C1CC23CCCCC2(CC(O)C3)C1` (stereo not drawn) [anti,syn-22, 1-benzyl-1-{(8-anti,11-syn)-11-hydroxy[4.3.3]propellan-8-yl}-3-(2-methoxy-5-methylphenyl)urea] the inhibition at 1 µM [1] was 0% and the “inhibition of the radioligand binding, σ2” value (shortened to “inhibition … σ2”) [2] was 17%.

With `c1ccc(CNC2CC34CCCCC3(CCC4)C2)cc1` (stereo not drawn) [compound 8] the Ki [1, 3] was 594 nM, the “reduction of σ1 affinity compared to azapropellane 9a” value ([1]; compared to 9a) was 35 fold and the “selectivity for the σ1 receptor over the σ2 receptor” value ([1]; σ1 over σ2) was “at least 10 fold”. The inhibition at 1 µM [2] was 39%.

For `NC1CC23CCCCC2(CCC3)C1` (stereo not drawn) [compound 16], the inhibition at 1 µM [1] was 5% and the inhibition at 1 µM [2] was 13%.

For `COc1ccc(C)cc1NC(=O)N(Cc1ccccc1)C1CC23CCCCC2(CC(O)C3)C1` (stereo not drawn) [syn,syn-22, 1-benzyl-1-{(8-syn,11-syn)-11-hydroxy[4.3.3]propellan-8-yl}-3-(2-methoxy-5-methylphenyl)urea], the “inhibition of the radioligand binding, σ1” value [1] was 0% and the “inhibition … σ2” value [2] was 0%.

`COc1ccc(C)cc1NC(=O)N(Cc1ccccc1)C1CC23CCCCC2(CC(O)C3)C1` (stereo not drawn) [anti,anti-22, 1 -Benzyl-1-{(8-anti,11-anti)-11-hydroxy[4.3.3]propellan-8-yl}-3-(2-methoxy-5-methylphenyl)urea] was tested, and the “inhibition of the radioligand binding, σ1” value [1] was 0% and the “inhibition … σ2” value [2] was 0%.

In the case of `COc1ccc(C)cc1NC(=O)OC1CC23CCCCC2(CC(NCCCCCO)C3)C1` (stereo not drawn) [8-anti-4t, [(8-anti-11-anti and 8-anti-11-syn)-11-(5-Hydroxypentylamino)[4.3.3]propellan-8-yl] N-(2-methoxy-5-methylphenyl)carbamate], the Ki [1, 3] is reported as 454 nM and the inhibition at 1 µM [2] is reported as 2%.

For `COc1ccc(NC2CC34CCCCC3(C2)CC(OC(=O)Nc2cc(C)ccc2OC)C4)cc1` (stereo not drawn) [8-anti-4m, [(8-anti-11-anti and 8-anti-11-syn)-11-(4-Methoxyphenylamino)[4.3.3]propellan-8-yl] N-(2-methoxy-5-methylphenyl)carbamate], the inhibition at 1 µM [1] was 11% and the inhibition at 1 µM [2] was 0%.

`O=C(Nc1ccc(F)c(F)c1)NC1CC23CCCCC2(CC(O)C3)C1` (stereo not drawn) [anti,anti-26, 1-(3,4-Difluorophenyl)-3-(8-anti-11-anti-11-hydroxy[4.3.3]propellan-8-yl)urea] gave an inhibition at 1 µM [1] of 0% and an inhibition at 1 µM [2] of 0%.

For `COc1ccc(C)cc1NC(=O)OC1CC23CCCCC2(CC(NCc2ccco2)C3)C1` (mixture of isomers) [8-syn-4i, [(8-syn-11-syn and 8-syn-11-anti)-11-[(Furan-2-yl-mehtyl)amino][4.3.3]propellan-8-yl] N-(2-methoxy-5-methylphenyl)carbamate], the Ki [1, 3] was 276 nM and the inhibition at 1 µM [2] was 0%.

Work on `COc1ccc(C)cc1NC(=O)OC1CC23CCCCC2(CC(NCCc2c[nH]c4ccccc24)C3)C1` (stereo not drawn) [8-anti-4k, [(8-anti-11-anti and 8-anti-11-syn)-11-[2-(Indol-3-yl)ethylamino][4.3.3]propellan-8-yl] N-(2-methoxy-5-methylphenyl)carbamate] yielded a Ki [1, 3] of 1200 nM, a Ki [1, 4] of roughly 1000 nM and an inhibition at 1 µM [2] of 0%.

With `COc1ccc(C)cc1NC(=O)OC1CC23CCCCC2(CC(NCc2ccc(C)cc2C)C3)C1` (stereo not drawn) [8-anti-4e, [(8-anti-11-anti and 8-anti-11-syn)-11-(2,4-Dimethylbenzylamino)[4.3.3]propellan-8-yl] N-(2-methoxy-5-methylphenyl)carbamate] the inhibition at 1 µM [1] was 0% and the Ki [2] was 1100 nM.

`COc1ccc(C)cc1NC(=O)OC1CC23CCCCC2(CC(NCc2ccco2)C3)C1` (mixture of isomers) [8-anti-4i, [(8-anti-11-anti and 8-anti-11-syn)-11-[(Furan-2-yl-mehtyl)amino][4.3.3]propellan-8-yl] N-(2-methoxy-5-methylphenyl)carbamate] gave a Ki [1, 3] of 924 nM, a Ki [1, 4] of roughly 1000 nM and a Ki [2] greater than 6000 nM.
